Entries after “also recorded” stand apart in the source; their conditions may differ.
Columns and labels:
Format in all cases: cell-based
TDP-43 aggregation = TDP-43 aggregation assay in SY5Y TDP-43WT cells (high content imaging); conditions: Homo sapiens, tetracycline induction 24 hrs, 1 hour compound pre-treatment, sodium arsenite 23 hrs, 8-point dose curve, percentage of cells with TDP-43 aggregates, read-out: IC50, Inhibition of TDP-43 Aggregation
In short: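 Tetracycline-inducible eGFP-tagged wild-type human TDP-43 in SH-SY5Y cells, induced 24 h ([…]), compound pre-treated 1 h, then sodium arsenite […] for 23 h. Fixed cells imaged; percentage of DAPI-counted cells with aggregates gives IC50 from 8-point curves.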

insoluble TDP-43 = experiment: Cell fractionation and immunoblot of TDP-43 in MG-132 challenged human motor neurons; conditions: 500 nM Compound 183 with MG-132 1 μM
Experimental: Cell culture and differentiation of iPS Cells into motor neurons. Pluripotent stem cells were grown with mTeSR Plus medium on tissue culture dishes coated with Matrigel, and maintained in 5% CO2 incubators at 37° C. Stem cells were passaged as small aggregates of cells after 1 mM EDTA treatment. […] was added to the cultures for 16-24 h after dissociation to prevent cell death. The iP11NA iPS cell line was acquired from ALSTEM. This cell line was generated from pre-made footprint-free human iPS cells with DOX inducible Ngn2 that has been stably integrated into the human AAVS1 “Safe Harbor” site, and provides a convenient means to differentiate human iPS cells into neurons rapidly and efficiently. Motor neuron differentiation was achieved using a modified 5-day strategy. […]
For analysis of TDP-43 cellular distribution, d14 motor neurons were lysed with Thermo Subcellular Protein Fractionation Kit for cultured cells and processed according to the manufacturer's instructions. […] Fluorescent secondary antibodies were used for band detection and the Kaleidoscope precision plus protein ladder for size estimation. iBright FL1500 imaging system and software were used to quantitate protein band signal. […]

TDP-43 splicing function = experiment: qRT-PCR of TDP-43 sentinel transcripts (STMN2, ELAVL3, PFKP) in MG-132 challenged human motor neurons
Experimental: Cell culture and differentiation of iPS Cells into motor neurons. Pluripotent stem cells were grown with mTeSR Plus medium on tissue culture dishes coated with Matrigel, and maintained in 5% CO2 incubators at 37° C. Stem cells were passaged as small aggregates of cells after 1 mM EDTA treatment. […] was added to the cultures for 16-24 h after dissociation to prevent cell death. The iP11NA iPS cell line was acquired from ALSTEM. This cell line was generated from pre-made footprint-free human iPS cells with DOX inducible Ngn2 that has been stably integrated into the human AAVS1 “Safe Harbor” site, and provides a convenient means to differentiate human iPS cells into neurons rapidly and efficiently. Motor neuron differentiation was achieved using a modified 5-day strategy.
This approach relies on neural induction through small molecule inhibition of SMAD signaling, accelerated neural differentiation through forced Ngn2 expression, and motor neuron patterning through the activation of retinoic acid and Sonic Hedgehog signaling pathways. In brief, pluripotent stem cells were dissociated to single cells using accutase and plated at a density of 80,000 cells per cm^2 on Matrigel-coated culture plates with mTeSR Plus medium supplemented with ROCK inhibitor (10 μM Y-27632, ATCC). When cells reached 50% confluency, medium was changed to differentiation medium BrainPhys medium supplemented with N2-A, SM1, […]. This time point was defined as day 0 (d0) of motor neuron differentiation. Treatment with small molecules was carried out as follows: 2 μg/mL Doxycyline, 10 μM SB431542, 100 nM LDN-193189, […] and 1 μM Smoothend agonist and 10 uM Edu. The full list of materials and their descriptions is included below in Table 5.
Total RNA was isolated from d14 motor neurons for qRT-PCR assays using TaqMan™ Fast Advanced Cells-to-CT™ Kit according to manufacturer's instructions. 7500 neurons per well of 96-well culture were routinely used for processing. qRT-PCR was then performed using multiplex assays from IDT using PrimeTime™ Gene Expression Master Mix (IDT) on a QuantStudio6Pro system. Quantitative levels for all genes assayed were normalized using GAPDH expression. […] Primers and probes used in this study are in Table 5.
To this end, we first examined whether proteasome inhibition, which triggers TDP-43 nuclear depletion, also leads to splicing defects associated with TDP-43 loss-of function. For comparison, we also treated human motor neurons with puromycin, which recruits TDP-43 to stress granules in the cytoplasm. We chose to analyze several transcripts that have relevant connections to ALS biology including STMN26,12, PFKP19, and ELAVL320,21. We used quantitative reverse transcription-polymerase chain reaction (qRT-PCR) to validate that in MG-132-treated motor neurons these transcripts were altered like in ALS patients.
Using this method, we next obtained RNA from independent motor neuron biological replicates after proteasome inhibition and Compound 183 treatment to determined by qRT-PCR the relative abundance of these transcripts. […] A dose-responsive effect was further tested for Compound 183 using qRT-PCR in this model. […] Collectively, the data support the notion that Compound 183 promotes TDP-43 nuclear function under proteotoxic stress.

[1] = Compound 183 500 nM with MG-132 1 μM, relative to MG-132 control
[2] = by 500 nM, MG-132 1 μM challenged motor neurons

Cc1cc(-c2ccc(C3CCN(C(C)C)CC3)cc2)sc1C(=O)N1CC[C@H](N)C1 [Compound 183, (S)-(3-aminopyrrolidin-1-yl)(5-(4-(1-isopropylpiperidin-4-yl)phenyl)-3-methylthiophen-2-yl)methanone]
IC50 (TDP-43 aggregation): < 500 nM
TDP-43 level in the nuclear fraction (immunoblot) (insoluble TDP-43): the levels of TDP-43 in the nucleus were maintained; also recorded: restoring nuclear TDP-43 localization
cryptic splicing events of STMN2, ELAVL3 and PFKP (qRT-PCR) (TDP-43 splicing function; [1]): nearly complete inhibition for all three cryptic splicing events
splicing of the normal transcripts, TDP-43 splicing function (qRT-PCR) (TDP-43 splicing function; [1]): increased splicing of the normal transcripts; also recorded: restoring splicing function of TDP-43
restoration of normal STMN2 and ELAVL3 levels (qRT-PCR, dose response) (TDP-43 splicing function; MG-132 1 μM challenged motor neurons): modest in its ability to restore normal STMN2 and ELAVL3 levels
maintenance of TDP-43 splicing function, dose response (qRT-PCR) (TDP-43 splicing function; MG-132 1 μM challenged motor neurons, effective concentration range for most transcripts): restoring TDP-43 splicing function in dose dependent manner
restoration of normal splicing of PFKP (qRT-PCR, dose response) (TDP-43 splicing function; [2]): fully restored normal splicing of PFKP
suppression of cryptic splicing, all transcripts tested (qRT-PCR, dose response) (TDP-43 splicing function; [2]): strong suppression of cryptic splicing

Source: patent publication US20260258025A1, “INHIBITORS OF TDP-43 AND TAU AGGREGATION” (Aquinnah Pharmaceuticals, inc., priority 2023, published 2026)
